In patent US20220362153A1, “COMPOSITIONS AND METHODS FOR PULMONARY SURFACTANT-BIOMIMETIC NANOPARTICLES” (priority 2019, published 2022):

Test system: NC09 H1N1 virus
Format: in vivo
Settings: unimmunized mice, 20 mg/kg/day

SMILES: CCOC(=O)C1=C[C@@H](OC(CC)CC)[C@H](NC(C)=O)[C@@H](N)C1 [oseltamivir]
- control of NC09 viral infection: but not NC09
